In PubChem BioAssay AID328 (DTP/NCI, 2004) one finds T/C data, which are given here for 23 compounds.

Several values for one entry are separate records, joined by “and”; a condition that tells them apart may be missing. Equal values may be shown once. Inconclusive results and toxic doses are left out.

The test system of this assay is BDF1 mice, P388 leukemia ip, median survival T/C. The assay is described as follows: NCI In Vivo Anticancer Drug Screen. Data for tumor model P388 Leukemia (intraperitoneal) in B6D2F1 (BDF1) mice. As to conditions: endpoint: median survival time, higher = longer survival. The method in brief: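 In tumour-bearing mice, survival after compound treatment is set against the vehicle group and given as a quotient.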

[1] abbreviates: dose: 50.0 mg/kg/injection, schedule: Q04DX003 (ip), vehicle: saline.
Where [2] appears, read: dose: 50.0 mg/kg/injection, schedule: Q04DX003 (ip), vehicle: saline with Tween-80.
Where [3] appears, read: dose: 100.0 mg/kg/injection, schedule: Q04DX003 (ip), vehicle: saline with Tween-80.
The mark [4] stands for this setting: dose: 100.0 mg/kg/injection, schedule: Q01DX001 (ip), vehicle: saline with Tween-80.
[5] abbreviates: dose: 200.0 mg/kg/injection, schedule: Q01DX001 (ip), vehicle: saline with Tween-80.
Setting [6] is: dose: 200.0 mg/kg/injection, schedule: Q04DX003 (ip), vehicle: saline with Tween-80.
Where [7] appears, read: dose: 400.0 mg/kg/injection, schedule: Q04DX003 (ip), vehicle: saline with Tween-80.
[8] abbreviates: dose: 25.0 mg/kg/injection, schedule: Q01DX009 (ip), vehicle: saline with Tween-80.
The mark [9] stands for this setting: dose: 50.0 mg/kg/injection, schedule: Q01DX009 (ip), vehicle: saline with Tween-80.
Setting [10] is: dose: 100.0 mg/kg/injection, schedule: Q01DX009 (ip), vehicle: saline with Tween-80.
The mark [11] stands for this setting: dose: 200.0 mg/kg/injection, schedule: Q01DX009 (ip), vehicle: saline with Tween-80.
Setting [12] is: dose: 25.0 mg/kg/injection, schedule: Q01DX009 (ip), vehicle: saline.
Where [13] appears, read: dose: 50.0 mg/kg/injection, schedule: Q01DX009 (ip), vehicle: saline.
The mark [14] stands for this setting: dose: 100.0 mg/kg/injection, schedule: Q01DX009 (ip), vehicle: saline.
[15] abbreviates: dose: 100.0 mg/kg/injection, schedule: Q04DX003 (ip), vehicle: saline.
Setting [16] is: dose: 6.25 mg/kg/injection, schedule: Q01DX009 (ip), vehicle: saline.
[17] abbreviates: dose: 12.5 mg/kg/injection, schedule: Q01DX009 (ip), vehicle: saline.

With `Oc1ccccc1OB(Oc1ccccc1O)N(CCCl)CCCl`, the T/C is 122 % of control (dose: 8.1 mg/kg/injection, schedule: Q01DX009 (ip), vehicle: Klucel (hydroxypropylcellulose) (HPC)); 86 % of control (dose: 16.5 mg/kg/injection, schedule: Q04DX003 (ip), vehicle: saline); 170 % of control (dose: 18.5 mg/kg/injection, schedule: Q01DX009 (ip), vehicle: Klucel (hydroxypropylcellulose) (HPC)); 150 % of control (dose: 24.75 mg/kg/injection, schedule: Q04DX003 (ip), vehicle: saline); 190 % of control and 195 % of control (dose: 28.12 mg/kg/injection, schedule: Q01DX009 (ip), vehicle: Klucel (hydroxypropylcellulose) (HPC)); 165 % of control (dose: 40.0 mg/kg/injection, schedule: Q01DX009 (ip), vehicle: Klucel (hydroxypropylcellulose) (HPC)). The T/C reads like this: (dose: 49.5 mg/kg/injection, schedule: Q04DX003 (ip), vehicle: saline) 150 % of control; under setting [1], 119 % of control.

With `COc1ccc2c(c1)CC(=CO)CC2=O.COc1ccc2c(c1)CC/C(=C/O)C2=O.[Cu]`, the T/C by setting is: (dose: 25.0 mg/kg/injection, schedule: Q04DX003 (ip), vehicle: saline with Tween-80) 100 % of control; under setting [2], 110 % of control; under setting [3], 90 % of control.

In the case of `O=S(=O)(CBr)N1CCOCC1`, the T/C (dose: 50.0 mg/kg/injection, schedule: Q01DX001 (ip), vehicle: saline with Tween-80) was 95 % of control; the T/C under setting [4] is 100 % of control; the T/C under setting [5] is 108 % of control.

As for `C[N+](C)(CC(=O)Nc1ccc(Cl)c(C(F)(F)F)c1)CC(=O)c1ccc(Cl)c(Cl)c1`, the T/C is 100 % of control (dose: 200.0 mg/kg/injection, schedule: Q04DX003 (ip), vehicle: saline sonified) and 104 % of control (dose: 400.0 mg/kg/injection, schedule: Q04DX003 (ip), vehicle: saline sonified).

As to `CCCNC(=O)Oc1ccc(C(=O)OCC)cc1`, the T/C under setting [3] was 100 % of control, the T/C under setting [6] was 109 % of control and the T/C under setting [7] is 113 % of control.

For the compound `CC(C)C(C(=O)c1ccccc1)c1ccccc1` (centres undefined), the T/C reads like this: under setting [8], 95 % of control; under setting [9], 109 % of control; under setting [10], 100 % of control; under setting [3], 100 % of control; under setting [11], 100 % of control; under setting [6], 118 % of control. Moreover, the T/C is, setting by setting: (dose: 400.0 mg/kg/injection, schedule: Q01DX009 (ip), vehicle: saline with Tween-80) 100 % of control; under setting [7], 100 % of control.

`Cc1ccc(S(=O)(=O)O)cc1`: the T/C by setting is: under setting [12], 91 % of control; under setting [13], 91 % of control; under setting [1], 100 % of control; under setting [14], 108 % of control; under setting [15], 95 % of control.

For the compound `COc1nc(Cl)nc(OC)n1`, the T/C reads like this: under setting [8], 96 % of control; under setting [9], 97 % of control; under setting [10], 99 % of control; under setting [11], 99 % of control.

As for `Cn1c(N)c(N=Nc2ccccc2)c(=O)[nH]c1=O`, the T/C under setting [4] is 100 % of control; the T/C under setting [5] was 102 % of control; the T/C (dose: 400.0 mg/kg/injection, schedule: Q01DX001 (ip), vehicle: saline with Tween-80) is 90 % of control.

Regarding `COc1ccc(CCO)cc1OC`, the T/C runs as follows: (dose: 50.0 mg/kg/injection, schedule: Q01DX009 (ip), vehicle: water) 97 % of control; (dose: 100.0 mg/kg/injection, schedule: Q01DX009 (ip), vehicle: water) 100 % of control; (dose: 100.0 mg/kg/injection, schedule: Q04DX003 (ip), vehicle: water) 99 % of control; (dose: 200.0 mg/kg/injection, schedule: Q01DX009 (ip), vehicle: water) 96 % of control; (dose: 200.0 mg/kg/injection, schedule: Q04DX003 (ip), vehicle: water) 106 % of control; (dose: 400.0 mg/kg/injection, schedule: Q01DX009 (ip), vehicle: water) 96 % of control.

On to `C(=C/c1nc2ccccc2o1)/c1ccc2c(c1)OCO2`, for which the T/C reads like this: (dose: 50.0 mg/kg/injection, schedule: Q01DX011 (ip), vehicle: Klucel (hydroxypropylcellulose) (HPC)) 102 % of control; (dose: 100.0 mg/kg/injection, schedule: Q01DX001 (ip), vehicle: Klucel (hydroxypropylcellulose) (HPC)) 100 % of control; (dose: 100.0 mg/kg/injection, schedule: Q01DX011 (ip), vehicle: Klucel (hydroxypropylcellulose) (HPC)) 99 % of control; (dose: 200.0 mg/kg/injection, schedule: Q01DX001 (ip), vehicle: Klucel (hydroxypropylcellulose) (HPC)) 86 % of control; (dose: 200.0 mg/kg/injection, schedule: Q01DX011 (ip), vehicle: Klucel (hydroxypropylcellulose) (HPC)) 100 % of control; (dose: 400.0 mg/kg/injection, schedule: Q01DX001 (ip), vehicle: Klucel (hydroxypropylcellulose) (HPC)) 94 % of control.

As to `CN1CCC(C=C2c3ccccc3Sc3ccccc32)C1` (centres undefined), the T/C by setting is: under setting [16], 99 % of control; under setting [17], 95 % of control; under setting [12], 100 % of control; under setting [13], 101 % of control.

With `CCCC(=O)c1c(C)cc(C)cc1C`, the T/C reads like this: (dose: 100.0 mg/kg/injection, schedule: Q04DX003 (ip), vehicle: Klucel (hydroxypropylcellulose) (HPC)) 110 % of control; (dose: 200.0 mg/kg/injection, schedule: Q04DX003 (ip), vehicle: Klucel (hydroxypropylcellulose) (HPC)) 110 % of control; (dose: 400.0 mg/kg/injection, schedule: Q04DX003 (ip), vehicle: Klucel (hydroxypropylcellulose) (HPC)) 120 % of control.

Turning to `CCCCN1CCN(c2ccc([N+](=O)[O-])c3no[n+]([O-])c23)CC1`, the T/C runs as follows: (dose: 16.0 mg/kg/injection, schedule: Q04DX003 (ip), vehicle: saline with Tween-80) 121 % of control; (dose: 32.0 mg/kg/injection, schedule: Q04DX003 (ip), vehicle: saline with Tween-80) 150 % of control; (dose: 64.0 mg/kg/injection, schedule: Q04DX003 (ip), vehicle: saline with Tween-80) 100 % of control.

On to `OCC1OC(n2cnc3cncnc32)C(O)C1O` (centres undefined), for which the T/C was 97 % of control (dose: 0.78 mg/kg/injection, schedule: Q01DX009 (ip), vehicle: saline); 113 % of control and 115 % of control (dose: 1.56 mg/kg/injection, schedule: Q01DX009 (ip), vehicle: saline); 100 % of control (dose: 3.13 mg/kg/injection, schedule: Q04DX003 (ip), vehicle: saline); 116 % of control (dose: 6.25 mg/kg/injection, schedule: Q04DX003 (ip), vehicle: saline); 100 % of control under setting [12].

On to `NC(c1ccccc1)C(N)c1ccccc1` (centres undefined), for which the T/C under setting [3] is 95 % of control.

Turning to `CC(=O)OCC(OC(C)=O)C(OC(C)=O)C(C#N)OC(C)=O` (centres undefined), the T/C was 95 % of control under setting [2] and 95 % of control under setting [3].

As for `O=C(OCC#CC#CCOC(=O)c1cccc2ccccc12)c1cccc2ccccc12`, the T/C runs as follows: (dose: 100.0 mg/kg/injection, schedule: Q01DX009 (ip), vehicle: Klucel (hydroxypropylcellulose) (HPC)) 100 % of control; (dose: 200.0 mg/kg/injection, schedule: Q01DX009 (ip), vehicle: Klucel (hydroxypropylcellulose) (HPC)) 95 % of control; (dose: 400.0 mg/kg/injection, schedule: Q01DX009 (ip), vehicle: Klucel (hydroxypropylcellulose) (HPC)) 105 % of control.

In the case of `COc1cc(NCCCC(C)N)c2ncccc2c1OC` (centres undefined), the T/C runs as follows: under setting [16], 101 % of control; under setting [17], 109 % of control; under setting [12], 116 % of control.

Take `NOCc1cccc(Cl)c1`: the T/C by setting is: under setting [2], 91 % of control; under setting [3], 91 % of control.

Turning to `CCOS(C)(=O)=O`, the T/C was 90 % of control under setting [13]; 100 % of control under setting [14]; 100 % of control under setting [15]; 105 % of control (dose: 200.0 mg/kg/injection, schedule: Q04DX003 (ip), vehicle: saline).

As to `NC(CO)Cc1ccccc1` (centres undefined), the T/C is, setting by setting: (dose: 12.5 mg/kg/injection, schedule: Q01DX009 (ip), vehicle: Klucel (hydroxypropylcellulose) (HPC)) 106 % of control; (dose: 25.0 mg/kg/injection, schedule: Q01DX009 (ip), vehicle: Klucel (hydroxypropylcellulose) (HPC)) 91 % of control.

Regarding `COc1cc([N+](=O)[O-])ccc1N`, the T/C under setting [3] is 100 % of control.
